# Tested on: luciferase reporter under the control of an HIF-responsive sequence in HCT 116 cells
# Assay: HIF-luciferase assay
# Assay type: cell-based
# Conditions: Homo sapiens; HCT 116 cells stably transfected with HIF-responsive luciferase reporter; hypoxia chamber (1% O2), 24 h; luminescence (Bright Glo)
# Procedure: HCT 116 cells were transfected in a stable manner with a plasmid which contained a luciferase reporter under the control of an HIF-responsive sequence. These cells were sown in microtitre plates [20,000 cells/cavity in RPMI 1640 medium with 10% foetal calf serum (FCS) and 100 μg/ml of hygromycin]. Incubation was carried out overnight under standard conditions (5% CO2, 21% O2, 37° C., moistened). The following morning the cells were incubated with various concentrations of the test substances (0-10 μmol/l) in a hypoxia chamber (1% O2). After 24 h, Bright Glo reagent (Promega, Wisconsin, USA) was added in accordance with the manufacturer'/s instructions, and after 5 min the luminescence was measured. Cells which were incubated under normoxia served as background controls.
row,SMILES,IC50 [nM]
1,Cc1cc(-c2nc(-c3ccc(OC(F)(F)F)cc3)no2)nn1Cc1ccc(NCCO)nc1 [Example 29],10
2,Cc1ccc(Cn2cc(-c3nc(-c4ccc(C5(F)COC5)cc4)no3)cc2C)cc1 [Example 81],10
3,"Cc1cc(-c2nc(-c3ccc(OC(F)(F)F)cc3)no2)cn1Cc1ccc(NCCO)nc1 [Example 100, 2-({5-[(2-Methyl-4-{3-[4-(trifluoromethoxy)phenyl]-1,2,4-oxadiazol-5-yl}-1H-pyrrol-1-yl)-methyl]pyridin-2-yl}amino)ethanol]",9
4,"Cc1cc(-c2nc(-c3ccc(C(C)(C)C)cc3)no2)cn1Cc1ccc(Cl)nc1 [Example 72, 5-({4-[3-(4-tert-Butylphenyl)-1,2,4-oxadiazol-5-yl]-2-methyl-1H-pyrrol-1-yl}methyl)-2-chloro-pyridine]",10
5,"Cc1cc(-c2nc(-c3ccc(OC(F)(F)F)cc3)no2)nn1Cc1ccc(N)nc1 [Example 135, 5-[(5-Methyl-3-{3-[4-(trifluoromethoxy)phenyl]-1,2,4-oxadiazol-5-yl}-1H-pyrazol-1-yl)methyl]-pyridin-2-amine]",4
6,Cc1cc(-c2nc(-c3ccc(OC(F)(F)F)cc3)no2)nn1Cc1ccc(NCCCO)nc1 [Example 25],8
7,CNc1ccc(Cn2nc(-c3nc(-c4ccc(C5(OC)CCC5)cc4)no3)cc2C)cn1 [Example 134],2
8,"CNc1ccc(Cn2nc(-c3nc(-c4ccc([Si](C)(C)C)cc4)no3)cc2C)cn1 [Example 178, N-Methyl-5-[(5-methyl-3-{3-[4-(trimethylsilyl)phenyl]-1,2,4-oxadiazol-5-yl}-1H-pyrazol-1-yl)-methyl]pyridin-2-amine]",0.6
9,Cc1ccc(Cc2cc(-c3nc(-c4ccc(C(C)(C)C)cc4)no3)nn2C)cc1 [Example 94],20
10,Cc1cc(-c2nc(-c3ccc(OC(F)(F)F)cc3)no2)nn1Cc1ccnc(N(CCO)CCO)c1 [Example 33],30
11,"CNc1ccc(Cn2nc(-c3nc(-c4ccc(OC(F)(F)F)cc4)no3)cc2C)cn1 [Example 24, N-Methyl-5-[(5-methyl-3-{3-[4-(trifluoromethoxy)phenyl]-1,2,4-oxadiazol-5-yl}-1H-pyrazol-1-yl)methyl]pyridin-2-amine]",1
12,CNc1ccc(Cn2nc(-c3nc(-c4ccc(C(C)(C)C(F)(F)F)cc4)no3)cc2C)cn1 [Example 121],0.4
13,"CCNc1ccc(Cn2nc(-c3nc(-c4ccc([Si](C)(C)C)cc4)no3)cc2C)cn1 [Example 180, N-Ethyl-5-[(5-methyl-3-{3-[4-(trimethylsilyl)phenyl]-1,2,4-oxadiazol-5-yl}-1H-pyrazol-1-yl)-methyl]pyridin-2-amine]",1
14,Cc1ccc(Cn2cc(-c3nc(-c4ccc(S(=O)(=O)C(F)(F)F)cc4)no3)cc2C)cc1 [Example 79],4
15,CNc1ccc(Cn2nc(-c3nc(-c4ccc(C5(F)CCC5)cc4)no3)cc2C)cn1 [Example 133],1.5

# Continued, values first:
row,IC50 [nM],SMILES
1,2,"CNc1ccc(Cn2nc(-c3nc(-c4ccc(OC(F)(F)F)c(F)c4)no3)cc2C)cn1 [Example 182, 5-[(3-{3-[3-Fluoro-4-(trifluoromethoxy)phenyl]-1,2,4-oxadiazol-5-yl}-5-methyl-1H-pyrazol-1-yl)-methyl]-N-methylpyridin-2-amine]"
2,0.6,"CNc1ccc(Cn2nc(-c3nc(-c4ccc(C5(C(F)(F)F)CC5)cc4)no3)cc2C)cn1 [Example 183, N-Methyl-5-{[5-methyl-3-(3-{4-[1-(trifluoromethyl)cyclopropyl]phenyl}-1,2,4-oxadiazol-5-yl)-1H-pyrazol-1-yl]methyl}pyridin-2-amine]"
3,0.6,"CN=S(=O)(c1ccc(-c2noc(-c3cc(C)n(Cc4ccc(NC)nc4)n3)n2)cc1)C(F)(F)F (racemic) [Example 187, N-Methyl-5-{[5-methyl-3-(3-{4-[N-methyl-S-(trifluoromethyl)sulphonimidoyl]phenyl}-1,2,4-oxa-diazol-5-yl)-1H-pyrazol-1-yl]methyl}pyridin-2-amine]"
4,0.4,"CNc1ccc(Cn2nc(-c3nc(-c4ccc(C5(COC)CCC5)cc4)no3)cc2C)cn1 [Example 171, 5-{[3-(3-{4-[1-(Methoxymethyl)cyclobutyl]phenyl}-1,2,4-oxadiazol-5-yl)-5-methyl-1H-pyrazol-1-yl]methyl}-N-methylpyridin-2-amine]"
5,2,"CNc1ccc(Cn2nc(-c3nc(-c4ccc(CN(C(C)C)C(C)C)cc4)no3)cc2C)cn1 [Example 184, 5-{[3-(3-{4-[(Diisopropylamino)methyl]phenyl}-1,2,4-oxadiazol-5-yl)-5-methyl-1H-pyrazol-1-yl]-methyl}-N-methylpyridin-2-amine]"
6,2,"CNc1ccc(Cn2nc(-c3nc(-c4ccc(C5CCOCC5)cc4)no3)cc2C)cn1 [Example 166, N-Methyl-5-[(5-methyl-3-{3-[4-(tetrahydro-2H-pyran-4-yl)phenyl]-1,2,4-oxadiazol-5-yl}-1H-pyrazol-1-yl)methyl]pyridin-2-amine]"
7,2,"CNc1ccc(Cn2nc(-c3nc(-c4ccc(OC(F)(F)F)c(Cl)c4)no3)cc2C)cn1 [Example 181, 5-[(3-{3-[3-Chloro-4-(trifluoromethoxy)phenyl]-1,2,4-oxadiazol-5-yl}-5-methyl-1H-pyrazol-1-yl)-methyl]-N-methylpyridin-2-amine]"
8,0.3,"CNc1ccc(Cn2nc(-c3nc(-c4ccc(C(C)(C)C)cc4)no3)cc2C)cn1 [Example 170, 5-({3-[3-(4-tert-Butylphenyl)-1,2,4-oxadiazol-5-yl]-5-methyl-1H-pyrazol-1-yl}methyl)-N-methyl-pyridin-2-amine]"
9,0.5,"CNc1ccc(Cn2cc(-c3nc(-c4ccc(C(C)(C)C(F)(F)F)cc4)no3)cc2C)cn1 [Example 196, N-Methyl-5-[(2-methyl-4-{3-[4-(1,1,1-trifluoro-2-methylpropan-2-yl)phenyl]-1,2,4-oxadiazol-5-yl}-1H-pyrrol-1-yl)methyl]pyridin-2-amine]"
10,1,"CNc1ccc(Cn2nc(-c3nc(-c4ccc(S(=N)(=O)C(F)(F)F)cc4)no3)cc2C)cn1 (racemic) [Example 188, N-Methyl-5-{[5-methyl-3-(3-{4-[S-(trifluoromethyl)sulphonimidoyl]phenyl}-1,2,4-oxadiazol-5-yl)-1H-pyrazol-1-yl]methyl}pyridin-2-amine]"

# Source: patent publication US20110301122A1, “HETEROAROMATIC COMPOUNDS FOR USE AS HIF INHIBITORS” (BAYER SCHERING PHARMA AKTIENGESELLSCHAFT, priority 2008, published 2011)
